Measured values taken from ChEMBL document CHEMBL2429768, “Eco-friendly synthesis and antimicrobial activities of substituted-5-(1H-indol-3-yl)methylene)-2,2-dimethyl-1,3-dioxane-4,6-dione derivatives” (2013).
≈ marks a conversion by molar mass, not a printed value.

Experiments:
Format in all cases: functional
Bacillus subtilis [1] = test: Antibacterial activity against Bacillus subtilis at 100 ug/ml after 24 hrs by agar well diffusion method; details: read-out: DIZ
Aspergillus flavus [2] = test: Antifungal activity against Aspergillus flavus after 72 hrs by agar well diffusion method
Fusarium oxysporum [3] = test: Antifungal activity against Fusarium oxysporum at 50 ug/ml after 72 hrs by agar well diffusion method; details: read-out: DIZ
Staphylococcus aureus [4] = test: Antibacterial activity against Staphylococcus aureus ATCC 6538 at 50 ug/ml after 24 hrs by agar well diffusion method; details: ATCC 6538, 24 h, read-out: DIZ
Rhizoctonia solani [5] = test: Antifungal activity against Rhizoctonia solani after 72 hrs by agar well diffusion method
Aspergillus niger [6] = test: Antifungal activity against Aspergillus niger after 72 hrs by agar well diffusion method
Klebsiella pneumoniae [7] = test: Antibacterial activity against Klebsiella pneumoniae after 24 hrs by agar well diffusion method
Aspergillus flavus [8] = test: Antifungal activity against Aspergillus flavus at 200 ug/ml after 72 hrs by agar well diffusion method; details: read-out: DIZ
Fusarium oxysporum [9] = test: Antifungal activity against Fusarium oxysporum at 500 ug/ml after 72 hrs by agar well diffusion method; details: read-out: DIZ
Escherichia coli [10] = test: Antibacterial activity against Escherichia coli ATCC 8739 at 300 ug/ml after 24 hrs by agar well diffusion method; details: ATCC 8739, 24 h, read-out: DIZ
Aspergillus niger [11] = test: Antifungal activity against Aspergillus niger at 50 ug/ml after 72 hrs by agar well diffusion method; details: read-out: DIZ
Bacillus subtilis [12] = test: Antibacterial activity against Bacillus subtilis at 50 ug/ml after 24 hrs by agar well diffusion method; details: read-out: DIZ
Escherichia coli [13] = test: Antibacterial activity against Escherichia coli ATCC 8739 at 50 ug/ml after 24 hrs by agar well diffusion method; details: ATCC 8739, 24 h, read-out: DIZ
Fusarium oxysporum [14] = test: Antifungal activity against Fusarium oxysporum at 300 ug/ml after 72 hrs by agar well diffusion method; details: read-out: DIZ
Rhizoctonia solani [15] = test: Antifungal activity against Rhizoctonia solani at 100 ug/ml after 72 hrs by agar well diffusion method; details: read-out: DIZ
Aspergillus flavus [16] = test: Antifungal activity against Aspergillus flavus at 500 ug/ml after 72 hrs by agar well diffusion method; details: read-out: DIZ
Rhizoctonia solani [17] = test: Antifungal activity against Rhizoctonia solani at 500 ug/ml after 72 hrs by agar well diffusion method; details: read-out: DIZ
Escherichia coli [18] = test: Antibacterial activity against Escherichia coli ATCC 8739 at 100 ug/ml after 24 hrs by agar well diffusion method; details: ATCC 8739, 24 h, read-out: DIZ
Fusarium oxysporum [19] = test: Antifungal activity against Fusarium oxysporum at 200 ug/ml after 72 hrs by agar well diffusion method; details: read-out: DIZ
Bacillus subtilis [20] = test: Antibacterial activity against Bacillus subtilis at 300 ug/ml after 24 hrs by agar well diffusion method; details: read-out: DIZ
Escherichia coli [21] = test: Antibacterial activity against Escherichia coli ATCC 8739 after 24 hrs by agar well diffusion method; details: ATCC 8739, 24 h
Aspergillus flavus [22] = test: Antifungal activity against Aspergillus flavus at 100 ug/ml after 72 hrs by agar well diffusion method; details: read-out: DIZ
Klebsiella pneumoniae [23] = test: Antibacterial activity against Klebsiella pneumoniae at 500 ug/ml after 24 hrs by agar well diffusion method; details: read-out: DIZ
Bacillus subtilis [24] = test: Antibacterial activity against Bacillus subtilis at 500 ug/ml after 24 hrs by agar well diffusion method; details: read-out: DIZ
Klebsiella pneumoniae [25] = test: Antibacterial activity against Klebsiella pneumoniae at 300 ug/ml after 24 hrs by agar well diffusion method; details: read-out: DIZ
Aspergillus flavus [26] = test: Antifungal activity against Aspergillus flavus at 50 ug/ml after 72 hrs by agar well diffusion method; details: read-out: DIZ
Rhizoctonia solani [27] = test: Antifungal activity against Rhizoctonia solani at 200 ug/ml after 72 hrs by agar well diffusion method; details: read-out: DIZ
Staphylococcus aureus [28] = test: Antibacterial activity against Staphylococcus aureus ATCC 6538 at 100 ug/ml after 24 hrs by agar well diffusion method; details: ATCC 6538, 24 h, read-out: DIZ
Aspergillus niger [29] = test: Antifungal activity against Aspergillus niger at 300 ug/ml after 72 hrs by agar well diffusion method; details: read-out: DIZ
Rhizoctonia solani [30] = test: Antifungal activity against Rhizoctonia solani at 300 ug/ml after 72 hrs by agar well diffusion method; details: read-out: DIZ
Aspergillus niger [31] = test: Antifungal activity against Aspergillus niger at 500 ug/ml after 72 hrs by agar well diffusion method; details: read-out: DIZ
Staphylococcus aureus [32] = test: Antibacterial activity against Staphylococcus aureus ATCC 6538 after 24 hrs by agar well diffusion method; details: ATCC 6538, 24 h
Escherichia coli [33] = test: Antibacterial activity against Escherichia coli ATCC 8739 at 200 ug/ml after 24 hrs by agar well diffusion method; details: ATCC 8739, 24 h, read-out: DIZ
Staphylococcus aureus [34] = test: Antibacterial activity against Staphylococcus aureus ATCC 6538 at 200 ug/ml after 24 hrs by agar well diffusion method; details: ATCC 6538, 24 h, read-out: DIZ
Escherichia coli [35] = test: Antibacterial activity against Escherichia coli ATCC 8739 at 500 ug/ml after 24 hrs by agar well diffusion method; details: ATCC 8739, 24 h, read-out: DIZ
Fusarium oxysporum [36] = test: Antifungal activity against Fusarium oxysporum after 72 hrs by agar well diffusion method
Aspergillus niger [37] = test: Antifungal activity against Aspergillus niger at 100 ug/ml after 72 hrs by agar well diffusion method; details: read-out: DIZ
Staphylococcus aureus [38] = test: Antibacterial activity against Staphylococcus aureus ATCC 6538 at 300 ug/ml after 24 hrs by agar well diffusion method; details: ATCC 6538, 24 h, read-out: DIZ
Bacillus subtilis [39] = test: Antibacterial activity against Bacillus subtilis after 24 hrs by agar well diffusion method
Aspergillus niger [40] = test: Antifungal activity against Aspergillus niger at 200 ug/ml after 72 hrs by agar well diffusion method; details: read-out: DIZ
Rhizoctonia solani [41] = test: Antifungal activity against Rhizoctonia solani at 50 ug/ml after 72 hrs by agar well diffusion method; details: read-out: DIZ
Klebsiella pneumoniae [42] = test: Antibacterial activity against Klebsiella pneumoniae at 200 ug/ml after 24 hrs by agar well diffusion method; details: read-out: DIZ
Klebsiella pneumoniae [43] = test: Antibacterial activity against Klebsiella pneumoniae at 100 ug/ml after 24 hrs by agar well diffusion method; details: read-out: DIZ
Bacillus subtilis [44] = test: Antibacterial activity against Bacillus subtilis at 200 ug/ml after 24 hrs by agar well diffusion method; details: read-out: DIZ
Staphylococcus aureus [45] = test: Antibacterial activity against Staphylococcus aureus ATCC 6538 at 500 ug/ml after 24 hrs by agar well diffusion method; details: ATCC 6538, 24 h, read-out: DIZ
Fusarium oxysporum [46] = test: Antifungal activity against Fusarium oxysporum at 100 ug/ml after 72 hrs by agar well diffusion method; details: read-out: DIZ
Klebsiella pneumoniae [47] = test: Antibacterial activity against Klebsiella pneumoniae at 50 ug/ml after 24 hrs by agar well diffusion method; details: read-out: DIZ
Aspergillus flavus [48] = test: Antifungal activity against Aspergillus flavus at 300 ug/ml after 72 hrs by agar well diffusion method; details: read-out: DIZ

Compound `Cn1cc(C=C2C(=O)OC(C)(C)OC2=O)c2ccccc21` has a zone of inhibition at 100 µg/mL (Bacillus subtilis [1]) of 9 mm, an MIC (Aspergillus flavus [2]) of 40 µg/mL (≈ 140 µM) and a zone of inhibition at 50 µg/mL (Fusarium oxysporum [3]) of 7 mm. The zone of inhibition at 50 µg/mL (Staphylococcus aureus [4]) was 6 mm, the MIC (Rhizoctonia solani [5]) was 35 µg/mL (≈ 123 µM) and the MIC (Aspergillus niger [6]) was 40 µg/mL (≈ 140 µM). It also gave an MIC (Klebsiella pneumoniae [7]) of 15 µg/mL (≈ 52.6 µM), a zone of inhibition at 200 µg/mL (Aspergillus flavus [8]) of 12 mm and a zone of inhibition at 500 µg/mL (Fusarium oxysporum [9]) of 29 mm. The zone of inhibition at 300 µg/mL (Escherichia coli [10]) was 20 mm, the zone of inhibition at 50 µg/mL (Aspergillus niger [11]) was 6 mm and the zone of inhibition at 50 µg/mL (Bacillus subtilis [12]) was 4 mm. It also gave a zone of inhibition at 50 µg/mL (Escherichia coli [13]) of 8 mm, a zone of inhibition at 300 µg/mL (Fusarium oxysporum [14]) of 21 mm and a zone of inhibition at 100 µg/mL (Rhizoctonia solani [15]) of 12 mm. It also gave a zone of inhibition at 500 µg/mL (Aspergillus flavus [16]) of 23 mm, a zone of inhibition at 500 µg/mL (Rhizoctonia solani [17]) of 29 mm and a zone of inhibition at 100 µg/mL (Escherichia coli [18]) of 13 mm. For the same compound, the zone of inhibition at 200 µg/mL (Fusarium oxysporum [19]) was 16 mm, the zone of inhibition at 300 µg/mL (Bacillus subtilis [20]) was 15 mm and the MIC (Escherichia coli [21]) was 15 µg/mL (≈ 52.6 µM). The zone of inhibition at 100 µg/mL (Aspergillus flavus [22]) was 9 mm, the zone of inhibition at 500 µg/mL (Klebsiella pneumoniae [23]) was 31 mm and the zone of inhibition at 500 µg/mL (Bacillus subtilis [24]) was 23 mm. For the same compound, the zone of inhibition at 300 µg/mL (Klebsiella pneumoniae [25]) was 23 mm, the zone of inhibition at 50 µg/mL (Aspergillus flavus [26]) was 4 mm and the zone of inhibition at 200 µg/mL (Rhizoctonia solani [27]) was 16 mm. The zone of inhibition at 100 µg/mL (Staphylococcus aureus [28]) was 10 mm, the zone of inhibition at 300 µg/mL (Aspergillus niger [29]) was 18 mm and the zone of inhibition at 300 µg/mL (Rhizoctonia solani [30]) was 21 mm. For the same compound, the zone of inhibition at 500 µg/mL (Aspergillus niger [31]) was 25 mm, the MIC (Staphylococcus aureus [32]) was 25 µg/mL (≈ 87.6 µM) and the zone of inhibition at 200 µg/mL (Escherichia coli [33]) was 16 mm. It also gave a zone of inhibition at 200 µg/mL (Staphylococcus aureus [34]) of 14 mm, a zone of inhibition at 500 µg/mL (Escherichia coli [35]) of 30 mm and an MIC (Fusarium oxysporum [36]) of 35 µg/mL (≈ 123 µM). The zone of inhibition at 100 µg/mL (Aspergillus niger [37]) was 10 mm, the zone of inhibition at 300 µg/mL (Staphylococcus aureus [38]) was 18 mm and the MIC (Bacillus subtilis [39]) was 30 µg/mL (≈ 105 µM). The zone of inhibition at 200 µg/mL (Aspergillus niger [40]) was 14 mm, the zone of inhibition at 50 µg/mL (Rhizoctonia solani [41]) was 7 mm and the zone of inhibition at 200 µg/mL (Klebsiella pneumoniae [42]) was 18 mm. It also gave a zone of inhibition at 100 µg/mL (Klebsiella pneumoniae [43]) of 14 mm, a zone of inhibition at 200 µg/mL (Bacillus subtilis [44]) of 12 mm and a zone of inhibition at 500 µg/mL (Staphylococcus aureus [45]) of 25 mm. For the same compound, the zone of inhibition at 100 µg/mL (Fusarium oxysporum [46]) was 12 mm, the zone of inhibition at 50 µg/mL (Klebsiella pneumoniae [47]) was 9 mm and the zone of inhibition at 300 µg/mL (Aspergillus flavus [48]) was 15 mm.
